Assay results from patent publication US11584732B2, “Methods of treatment using 4-(3-cyanophenyl)-6-pyridinylpyrimidine mGlu5 modulators” (Heptares Therapeutics Limited, priority 2013, dated 2023).

System: CD-1 mice
Assay: In vivo efficacy test - marble burying
Parameters: species or system mouse
Details: male CD-1 mice, po, 30 min prior to test; at a dose of 10 and 30 mg/kg versus vehicle group

N#Cc1cc(Cl)cc(-c2cc(-c3ccc(F)cn3)ncn2)c1 [Example 17, 3-chloro-5-[6-(5-fluoropyridin-2-yl)pyrimidin-4-yl]benzonitrile]
number of marbles buried: statistically significant decrease
